We go through 23 compounds from patent publication US20250195530A1, “POLQ INHIBITORS” (ASTRAZENECA AB, priority 2022, published 2025).

Like-named read-outs stand apart in the source and are kept apart here. Some results are limits rather than exact numbers.

Experiment [1] has as its system DLD-1 BRCA2−/− cells. Kind of experiment: Homologous recombination synthetic lethal inhibition of proliferation, DLD-1 BRCA2-/- (Cell Titre Glo 3D). The experiment is classed as cell-based. The settings on record: for IC50: Homo sapiens; for POLQ PD Prolif Lumin BRCA2 −/− mean pIC50: DLD-1 BRCA2 −/−. The procedure, abridged: (§1)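 Luminescent Cell Titre Glo 3D readout, taken on day 12 for homologous-recombination-deficient DLD-1 BRCA2−/− and day 7 for the wild-type control, after compound refresh on day 6. Compounds spanned 10 μM to 0.51 nM in three-fold steps; IC50 defined as 50% reduction of average maximum signal.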

Experiment [2] has as its system DLD-1 cells. The experiment in a line: Inhibition of proliferation, DLD-1 BRCA2 wt control (Cell Titre Glo 3D). The experiment is classed as cell-based. The following applies: for IC50: Homo sapiens; for POLQ PD Prolif Lumin DLD1 mean pIC50: DLD1 BRCA2 wt. Summed up:
as §1

Where [3] appears, read: DLD-1, DLD-1 BRCA2-/- proliferation, column head only partly shown, read-out: POLQ PD Prolif Lumin (converted).
Where [4] appears, read: DLD-1, DLD-1 BRCA2 wt control proliferation, column head only partly shown, read-out: POLQ PD Prolif Lumin (converted).
The mark [5] stands for this setting: DLD-1, 288 h, DLD-1 BRCA2−/− cells, 12 days, read-out: POLQ PD Prolif Lumin BRCA2 −/− mean pIC50 (converted).
The mark [6] stands for this setting: DLD-1, 168 h, DLD-1 BRCA2 wt cells, 7 days, read-out: POLQ PD Prolif Lumin DLD1 mean pIC50 (converted).
Setting [7] is: DLD-1, proliferation, luminescence, taken as DLD-1 BRCA2-/-, read-out: POLQ PD Prolif Lumin (converted).
Where [8] appears, read: DLD-1, proliferation, luminescence, second Prolif column (c6), taken as DLD-1 BRCA2 wt control, read-out: POLQ PD Prolif Lumin (converted).
The mark [9] stands for this setting: DLD-1, DLD-1 BRCA2 −/−, mean, read-out: POLQ PD Prolif Lumin BRCA2 −/− mean pIC50 (converted).
Where [10] appears, read: DLD-1, DLD1 BRCA2 wt, mean, read-out: POLQ PD Prolif Lumin DLD1 mean pIC50 (converted).
[11] abbreviates: DLD-1, first proliferation column (c5), DLD-1 BRCA2-/-, read-out: POLQ PD Prolif Lumin (converted).
[12] abbreviates: DLD-1, second proliferation column (c6), DLD-1 BRCA2 wt control, read-out: POLQ PD Prolif Lumin (converted).

Regarding `Cc1ccnc(Cn2c(-c3ccc(CC(=O)N(C)C)cc3Cl)nc3c(OC4(C)CC4)ncnc32)c1` [Example T210, 2-(3-chloro-4-(6-(1-methylcyclopropoxy)-9-((4-methylpyridin-2-yl)methyl)-9H-purin-8-yl)phenyl)-N,N-dimethylacetamide], the IC50 in experiment [1] (setting [3]) is 316 nM; in experiment [2] (setting [4]), over 10000 nM.
Take `CC1(Oc2ncnc3c2nc(-c2cccc(O[C@H]4C[C@@H](C(=O)O)C4)c2Cl)n3Cc2cc(Cl)ccc2C#N)CC1` [Example U84, (1s,3s)-3-(2-chloro-3-(9-(5-chloro-2-cyanobenzyl)-6-(1-methylcyclopropoxy)-9H-purin-8-yl)phenoxy)cyclobutane-1-carboxylic acid]: in experiment [1] (mean), the “POLQ PD Prolif Lumin BRCA2 −/− mean pIC50” value came out at 7.3. The “POLQ PD Prolif Lumin DLD1 mean pIC50” value in experiment [2] (mean) is recorded as under 5.0.
With `CC1(Oc2ncnc3c2nc(-c2ccc(OC4CNC4)cc2Cl)n3Cc2ccccc2)CC1` [Example D35, 8-(4-(azetidin-3-yloxy)-2-chlorophenyl)-9-benzyl-6-(1-methylcyclopropoxy)-9H-purine], the IC50 in experiment [1] (setting [5]) is 501 nM; in experiment [2] (setting [6]), 3980 nM.
On to `Cc1ccnc(Cn2c(-c3ccc(OC4CN(C(=O)[C@@H](C)O)C4)cc3Cl)nc3c(OC4(C)CC4)ncnc32)c1` [Example T482, (R)-1-(3-(3-chloro-4-(6-(1-methylcyclopropoxy)-9-((4-methylpyridin-2-yl)methyl)-9H-purin-8-yl)phenoxy)azetidin-1-yl)-2-hydroxypropan-1-one], for which the IC50 in experiment [1] (setting [7]) is 316 nM; in experiment [2] (setting [8]) it was over 10000 nM.
The corresponding values for `Cc1cnc(Cn2c(-c3cccc(OCCCN4CC[C@@H](O)C4)c3Cl)nc3c(OC4(C)CC4)ncnc32)s1` [Example T392, (R)-1-(3-(2-chloro-3-(6-(1-methylcyclopropoxy)-9-((5-methylthiazol-2-yl)methyl)-9H-purin-8-yl)phenoxy)propyl)pyrrolidin-3-ol] are 794 nM and 794 nM.
`Cc1ccnc(Cn2c(-c3ccc(N4C[C@H]5C[C@@H]4CN5)cc3Cl)nc3c(OC4(C)CC4)ncnc32)c1` [Example T336, 8-(4-((1R,4R)-2,5-diazabicyclo[2.2.1]heptan-2-yl)-2-chlorophenyl)-6-(1-methylcyclopropoxy)-9-((4-methylpyridin-2-yl)methyl)-9H-purine]: the IC50 in experiment [1] (DLD-1, first proliferation column (c5), taken as DLD-1 BRCA2-/-, read-out: POLQ PD Prolif Lumin (converted)) was 1580 nM; in experiment [2] (DLD-1, second proliferation column (c6), taken as DLD-1 BRCA2 wt, read-out: POLQ PD Prolif Lumin (converted)), over 10000 nM.
Regarding `Cc1cnc(Cn2c(-c3ccc(OC4CCCNCC4)cc3Cl)nc3c(OC4(C)CC4)ncnc32)s1` (single isomer, unassigned) [Example T242, 2-((8-(4-(azepan-4-yloxy)-2-chlorophenyl)-6-(1-methylcyclopropoxy)-9H-purin-9-yl)methyl)-5-methylthiazole], the IC50 is 794 nM in experiment [1] (setting [3]) and over 10000 nM in experiment [2] (setting [4]).
Consider `CC1(Oc2ncnc3c2nc(-c2ccc(OCCN4CCNCC4)cc2Cl)n3CCc2ccccc2)CC1` [Example J12, 8-(2-chloro-4-(2-(piperazin-1-yl)ethoxy)phenyl)-6-(1-methylcyclopropoxy)-9-phenethyl-9H-purine], for which the results for the IC50 in experiment [1] (setting [5]) and in experiment [2] (setting [6]) were 501 nM and over 10000 nM, respectively.
Take `CC1(Oc2ncnc3c2nc(-c2ccc(CN4CCNCC4)cc2Cl)n3Cc2ccccc2)CC1` [Example N6, 9-benzyl-8-(2-chloro-4-(piperazin-1-ylmethyl)phenyl)-6-(1-methylcyclopropoxy)-9H-purine]: the IC50 in experiment [1] (setting [5]) is 100 nM; in experiment [2] (setting [6]), 3980 nM.
For `COc1ccc(Cl)cc1Cn1c(-c2cccc(O[C@H]3CC[C@@H](C(=O)O)CC3)c2Cl)nc2c(OC3(C)CC3)ncnc21` [Example U50, (1s,4s)-4-(2-chloro-3-(9-(5-chloro-2-methoxybenzyl)-6-(1-methylcyclopropoxy)-9H-purin-8-yl)phenoxy)cyclohexane-1-carboxylic acid], in experiment [1] (mean), the “POLQ PD Prolif Lumin BRCA2 −/− mean pIC50” value was 7.6. In experiment [2] (mean), the “POLQ PD Prolif Lumin DLD1 mean pIC50” value was under 5.0.
On to `COc1ccc(C)cc1Cn1c(-c2ccc(OCC[C@H](C)C(=O)O)cc2Cl)nc2c(OC3(C)CC3)ncnc21` [Example U94, (S)-4-(3-chloro-4-(9-(2-methoxy-5-methylbenzyl)-6-(1-methylcyclopropoxy)-9H-purin-8-yl)phenoxy)-2-methylbutanoic acid], for which the IC50 in experiment [1] (setting [9]) was 50.1 nM; in experiment [2] (setting [10]), over 10000 nM.
In the case of `Cc1cc(OCCN)ncc1-c1nc2c(OC3(C)CC3)ncnc2n1Cc1ccccc1` [Example G8, 2-((5-(9-benzyl-6-(1-methylcyclopropoxy)-9H-purin-8-yl)-4-methylpyridin-2-yl)oxy)ethan-1-amine], the IC50 in experiment [1] (setting [5]) was 2000 nM; in experiment [2] (setting [6]) it was 7940 nM.
For the compound `CN(C)C(=O)c1ccc(-c2nc3c(OC4(C)CC4)ncnc3n2Cc2ccccc2)c(Cl)c1` [Example N1, 4-(9-benzyl-6-(1-methylcyclopropoxy)-9H-purin-8-yl)-3-chloro-N,N-dimethylbenzamide], the IC50 in experiment [1] (setting [5]) is 200 nM; in experiment [2] (setting [6]), over 10000 nM.
With `COc1ccc(Cl)cc1Cn1c(-c2cccc(OCCC(=O)O)c2Cl)nc2c(OC3(C)CC3)ncnc21` [Example 49, 3-(2-Chloro-3-(9-(5-chloro-2-methoxybenzyl)-6-(1-methylcyclopropoxy)-9H-purin-8-yl)phenoxy)propanoic acid], the IC50 in experiment [1] (DLD-1, 288 h, DLD-1 BRCA2−/−, 12 days, Cell Titre Glo 3D, read-out: POLQ PD Prolif Lumin BRCA2 −/− Mean pIC50 (converted)) is 15.8 nM; in experiment [2] (DLD-1, 168 h, DLD-1 (BRCA2 wt control), 7 days, Cell Titre Glo 3D, read-out: POLQ PD Prolif Lumin DLD1 Mean pIC50 (converted)), over 10000 nM.
For `CC1(Oc2ncnc3c2nc(-c2ccc(OCCN4CCCNCC4=O)cc2Cl)n3Cc2ccccc2)CC1` [Example R12, 1-(2-(4-(9-benzyl-6-(1-methylcyclopropoxy)-9H-purin-8-yl)-3-chlorophenoxy)ethyl)-1,4-diazepan-2-one], the IC50 in experiment [1] (setting [5]) is 100 nM; in experiment [2] (setting [6]) it was 2510 nM.
On to `N#CC1(Oc2ncnc3c2nc(-c2ccc(OCCN4CCNCC4)cc2Cl)n3Cc2cccc(Cl)c2)CC1` [Example Q5, 1-((8-(2-chloro-4-(2-(piperazin-1-yl)ethoxy)phenyl)-9-(3-chlorobenzyl)-9H-purin-6-yl)oxy)cyclopropane-1-carbonitrile], for which the IC50 in experiment [1] (setting [5]) is 158 nM; in experiment [2] (setting [6]), 6310 nM.
On to `COc1ccc(Cl)cc1Cn1c(-c2ccc(CCCC(C)C(=O)O)cc2Cl)nc2c(OC3(C)CC3)ncnc21` (racemic) [Example U56, 5-(3-chloro-4-(9-(5-chloro-2-methoxybenzyl)-6-(1-methylcyclopropoxy)-9H-purin-8-yl)phenyl)-2-methylpentanoic acid], for which the IC50 in experiment [1] (setting [9]) was 126 nM; in experiment [2] (setting [10]), over 10000 nM.
The corresponding values for `CC1(Oc2ncnc3c2nc(-c2ccc(F)c(OCCC(=O)O)c2Cl)n3Cc2cccc(Cl)c2)CC1` [Example U65, 3-(2-chloro-3-(9-(3-chlorobenzyl)-6-(1-methylcyclopropoxy)-9H-purin-8-yl)-6-fluorophenoxy)propanoic acid] are 251 nM and over 10000 nM.
Regarding `Cc1ccnc(Cn2c(-c3ccc(OCCN4CCCC4)cc3Cl)nc3c(OC4(C)CC4)ncnc32)c1` [Example T507, 8-(2-chloro-4-(2-(pyrrolidin-1-yl)ethoxy)phenyl)-6-(1-methylcyclopropoxy)-9-((4-methylpyridin-2-yl)methyl)-9H-purine], the IC50 is 100 nM in experiment [1] (setting [11]) and over 10000 nM in experiment [2] (setting [12]).
For `CN1CCC(COc2ccc(-c3nc4c(OC5(C)CC5)ncnc4n3Cc3ccccc3)c(Cl)c2)CC1` [Example 5, 9-Benzyl-8-(2-chloro-4-((1-methylpiperidin-4-yl)methoxy)phenyl)-6-(1-methylcyclopropoxy)-9H-purine], the IC50 in experiment [1] (setting [5]) was 50.1 nM; in experiment [2] (setting [6]), 3160 nM.
Consider `Cc1cccc(Cn2c(-c3ccc(OCCN4CCNCC4)cc3Cl)nc3c(OC4(C)CC4)ncnc32)n1` [Example K7, 8-(2-chloro-4-(2-(piperazin-1-yl)ethoxy)phenyl)-6-(1-methylcyclopropoxy)-9-((6-methylpyridin-2-yl)methyl)-9H-purine], for which the IC50 in experiment [1] (setting [5]) was 1260 nM; in experiment [2] (setting [6]), over 10000 nM.
`Cc1ccnc(Cn2c(-c3ccc(OCCCN4CC(O)C4)cc3Cl)nc3c(OC4(C)CC4)ncnc32)c1` [Example T513, 1-(3-(3-chloro-4-(6-(1-methylcyclopropoxy)-9-((4-methylpyridin-2-yl)methyl)-9H-purin-8-yl)phenoxy)propyl)azetidin-3-ol]: the IC50 is 316 nM in experiment [1] (setting [11]) and over 10000 nM in experiment [2] (setting [12]).
On to `CC(C)C(CCOc1ccc(-c2nc3c(OC4(C)CC4)ncnc3n2Cc2cccc(Cl)c2)c(Cl)c1)C(=O)O` (racemic) [Example T566, 4-(3-chloro-4-(9-(3-chlorobenzyl)-6-(1-methylcyclopropoxy)-9H-purin-8-yl)phenoxy)-2-isopropylbutanoic acid], for which the results for the IC50 in experiment [1] (setting [11]) and in experiment [2] (setting [12]) were 158 nM and over 10000 nM, respectively.
